Patent publication US11866458B2, “Panaxadiol glycoside derivative and preparation method and application thereof” (SUZHOU JI ER BIOLOGICAL MEDICINE CO., LTD., priority 2018, dated 2024)

Key:
[1] = tested on: inflammatory cells in bronchoalveolar lavage fluid of mice; test: Determination of inflammatory cells in bronchoalveolar lavage fluid of mice (OVA asthma model); format: in vivo, BALB/C mice; design: unit not given here; details: oral
Protocol: 144 6-week-old BALB/C mice (18-20 g) were divided into 24 groups: control group, placebo group, dexamethasone group (3 mg/kg) and the drug groups. There were 6 in each group. The control group was given normal saline without any treatment. The other groups were sensitized by intraperitoneal injection of OVA 20 μg and aluminum hydroxide 200 μL PBC (2 mg, prepared into emulsion). […] On day 21, 22 and 23, the therapeutic agent (i.e. 3 mg/kg dexamethasone in the positive control group and oral administration in the drug group) was given orally. From day 17 to 23, PBS was given to the control group and placebo group respectively, PBS (without OVA) was given to the control group. On day 0 and day 14, the normal saline was nebulized for 30 minutes to remove the aluminum hydroxide on day 21, 22 and 23 See in Table 2.

[2] = tested on: mouse asthma model induced by OVA; test: Asthma induced by ovalbumin in Balb/c mice: IgE level in serum by ELISA; format: in vivo; details: oral; for content of IgE in mice serum (conclusion in words): model of mouse asthma induced by OVA, samples; for therapeutic effect on bronchial asthma induced by OVA: mouse
[3] = tested on: COPD rats induced by smoke exposure; test: COPD induced by smoke exposure in rats: lung function FEV0.2/FVC; format: in vivo, Wistar rats; details: for FEV2/FVC % (FEV0.2/FVC %, forced expiratory index within 200 ms): 180 days; for effect in COPD rats compared with inhaled budesonide: high dose group, oral
[4] = Table 1-1 (1st time), 20 mg/kg, 24 hours after last OVA stimulation

| SMILES | Acidic cells in bronchoalveolar lavage fluid ([1]; 2 mg/kg) | Neutral cells in bronchoalveolar lavage fluid ([1]; 2 mg/kg) | Total inflammatory cells in bronchoalveolar lavage fluid ([1]; 2 mg/kg) | lymphocyte in bronchoalveolar lavage fluid ([1]; 2 mg/kg) | Acidic cells in bronchoalveolar lavage fluid ([1]; 20 mg/kg) | Total inflammatory cells in bronchoalveolar lavage fluid ([1]; 20 mg/kg) | lymphocyte in bronchoalveolar lavage fluid ([1]; 20 mg/kg) | Acidic cells in bronchoalveolar lavage fluid ([1]; 200 mg/kg) | Neutral cells in bronchoalveolar lavage fluid ([1]; 200 mg/kg) | Total inflammatory cells in bronchoalveolar lavage fluid ([1]; 200 mg/kg) | lymphocyte in bronchoalveolar lavage fluid ([1]; 200 mg/kg) | Concentration of IgE in serum [2, 4] | Concentration of IgE in serum ([2]; Table 1-2 (2nd time), 15 mg/kg) | Concentration of IgE in serum ([2]; Table 1-2 (2nd time), 30 mg/kg) | Concentration of IgE in serum ([2]; Table 1-2 (2nd time), 60 mg/kg) | FEV2/FVC % (FEV0.2/FVC %, forced expiratory index within 200 ms) ([3]; 20 mg/kg oral) | FEV2/FVC % (FEV0.2/FVC %, forced expiratory index within 200 ms) ([3]; 40 mg/kg oral) | FEV2/FVC % (FEV0.2/FVC %, forced expiratory index within 200 ms) ([3]; 80 mg/kg oral) | effect in COPD rats compared with inhaled budesonide [3] | content of IgE in mice serum (conclusion in words) [2] | other results |
| --- | --- | --- | --- | --- | --- | --- | --- | --- | --- | --- | --- | --- | --- | --- | --- | --- | --- | --- | --- | --- | --- |
| CC(C)=CCC[C@](C)(O[C@@H]1OC(CO)[C@@H](O)[C@H](O)C1O)C1CC[C@]2(C)C1C(=O)CC1[C@@]3(C)CC[C@H](O)C(C)(C)C3CC[C@]12C (stereo partly drawn) [IB, 3β-hydroxyl-20(S)—O-β-D-glucopyranosyl dammarane-24-ene-12-one] | 31.19 ± 8.46 | 12.11 ± 7.22 | 46.76 ± 25.18 | 10.07 ± 6.12 | 9.35 ± 4.16 | 25.18 ± 13.12 | 7.53 ± 4.95 | 5.14 ± 3.08 | 3.49 ± 2.37 | 12.53 ± 6.23 | 3.75 ± 2.18 | 1337.11 ± 216.28 ng/mL | 2023.33 ± 203.47 ng/mL | 1909.19 ± 121.73 ng/mL | 1769.13 ± 164.34 ng/mL | 65.14 ± 12.78% | 73.59 ± 10.81 % | 82.16 ± 9.01 % | superior to budesonide | – | – |
| CC(C)=CCC[C@](C)(O[C@@H]1OC(CO)[C@@H](O)[C@H](O)C1O)C1CC[C@]2(C)C1C(=O)CC1[C@@]3(C)CC=CC(C)(C)C3CC[C@]12C (stereo partly drawn) [IH, 20(S)—O-β-D-glucopyranosyl dammarane-3, 24-diene-12-one] | – | – | – | – | – | – | – | – | – | – | – | 1191.08 ± 107.59 ng/mL | 1682.40 ± 182.76 ng/mL | 1311.37 ± 165.93 ng/mL | 1150.59 ± 129.55 ng/mL | 63.27 ± 14.65% | 73.59 ± 12.14 % | 85.51 ± 15.27 % | superior to budesonide | significantly reduce | therapeutic effect on bronchial asthma induced by OVA [2]: obvious therapeutic effect |
| CC(C)=CCC[C@](C)(O[C@@H]1OC(C)[C@H](O)[C@H](O)C1O)C1CC[C@]2(C)C1[C@H](O)CC1[C@@]3(C)CC[C@H](O)C(C)(C)C3CC[C@]12C (some centres unmarked) [IK] | – | – | – | – | – | – | – | – | – | – | – | 1020.78 ± 136.94 ng/mL | 1720.54 ± 165.49 ng/mL | 1406.28 ± 171.05 ng/mL | 1217.43 ± 162.75 ng/mL | 67.67 ± 11.39% | 78.59 ± 6.12 % | 85.56 ± 10.07 % | superior to budesonide | significantly reduce | therapeutic effect on bronchial asthma induced by OVA [2]: obvious therapeutic effect |
| CC(C)=CCC[C@](C)(O[C@@H]1OC[C@@H](O)[C@H](O)C1O)C1CC[C@]2(C)C1[C@H](O)CC1[C@@]3(C)CC[C@H](O)C(C)(C)C3CC[C@]12C (stereo partly drawn) [IJ, 20-O-β-D-xylopyranosyl-20(S)-panaxadiol glycoside] | – | – | – | – | – | – | – | – | – | – | – | 1250.07 ± 144.38 ng/mL | 2068.41 ± 153.29 ng/mL | 1824.85 ± 155.74 ng/mL | 1622.18 ± 130.38 ng/mL | 65.78 ± 12.35% | 77.57 ± 9.69 % | 84.36 ± 7.10 % | superior to budesonide | – | – |
| CC(C)=CCC[C@](C)(O[C@@H]1OC(CO)[C@H](O)[C@H](O)C1O)C1CC[C@]2(C)C1C(=O)CC1[C@@]3(C)CC[C@H](O)C(C)(C)C3CC[C@]12C (stereo partly drawn) [IC, 3p-hydroxyl-20(S)—O-β-D-galactopyranosyl dammarane-24-ene-12-one] | 31.51 ± 16.14 | 13.29 ± 7.12 | 50.77 ± 32.49 | 9.30 ± 6.85 | 18.44 ± 7.78 | 32.95 ± 21.07 | 6.49 ± 5.28 | 8.72 ± 3.31 | 5.17 ± 3.19 | 18.25 ± 9.48 | 3.77 ± 2.81 | 975.82 ± 260.32 ng/mL | 1908.70 ± 221.74 ng/mL | 1738.93 ± 124.22 ng/mL | 1575.92 ± 148.33 ng/mL | 65.45 ± 14.17% | 76.64 ± 7.98 % | 83.15 ± 8.42 % | superior to budesonide | – | Neutral cells in bronchoalveolar lavage fluid ([1]; 20 mg/kg): 8.16 ± 5.03 |
| CCCC1O[C@@H]2C[C@H]3[C@@H]4CCC5=CC(=O)C=C[C@]5(C)[C@H]4[C@@H](O)C[C@]3(C)[C@]2(C(=O)CO)O1 (some centres unmarked) [Budesonide, reference compound] | – | – | – | – | – | – | – | – | – | – | – | – | – | – | – | – | – | – | – | – | FEV2/FVC % (FEV0.2/FVC %, forced expiratory index within 200 ms) ([3]; nebulized 0.25 mg/mL, 4 mL, 30 minutes): 79.47 ± 12.39 % |
| CC(C)=CCC[C@](C)(O[C@@H]1OC[C@H](O)[C@H](O)C1O)C1CC[C@]2(C)C1[C@H](O)CC1[C@@]3(C)CC[C@H](O)C(C)(C)C3CC[C@]12C (stereo partly drawn) [IL, 20-O-α-L-arabinopyrauosyl-20(S)-panaxadiol glycoside] | – | – | – | – | – | – | – | – | – | – | – | 996.36 ± 102.45 ng/mL | 1548.67 ± 190.16 ng/mL | 1311.37 ± 154.37 ng/mL | 1080.12 ± 131.23 ng/mL | 71.15 ± 10.34 % | 80.25 ± 8.79 % | 89.62 ± 5.14 % | superior to budesonide | significantly reduce | therapeutic effect on bronchial asthma induced by OVA [2]: obvious therapeutic effect |
| COC(=O)C1O[C@@H](O[C@@](C)(CCC=C(C)C)C2CC[C@]3(C)C2C(=O)CC2[C@@]4(C)CC[C@H](OC(C)=O)C(C)(C)C4CC[C@]23C)C(O)[C@@H](O)[C@@H]1O (stereo partly drawn) [IA-1, 3-β-O-acetyl-20(S)—O-β-D-glucopyranuronic acid methyl ester dammarane-24-ene-12-one] | 26.55 ± 13.23 | 10.21 ± 6.07 | 43.42 ± 26.14 | 13.22 ± 8.27 | 13.26 ± 3.92 | 28.11 ± 14.91 | 4.76 ± 3.18 | 5.22 ± 3.31 | 3.75 ± 2.46 | 11.48 ± 4.39 | 3.82 ± 2.66 | – | – | – | – | – | – | – | – | – | Neutral cells in bronchoalveolar lavage fluid ([1]; 20 mg/kg): 3.95 ± 2.41 |
| CC(=O)O[C@H]1CC[C@@]2(C)C(CC[C@]3(C)C2CC(=O)C2C([C@](C)(CCC=C(C)C)O[C@@H]4OC(CO)[C@@H](O)[C@H](O)C4O)CC[C@]23C)C1(C)C (stereo partly drawn) [IA, 3-O-acetyl-20(S)—O-β-D-glucopyranosyl Dammarane-24-ene-12-one] | 29.23 ± 10.29 | 10.40 ± 6.48 | 40.75 ± 26.14 | 11.81 ± 5.97 | 11.46 ± 4.12 | 26.93 ± 15.01 | 8.84 ± 5.63 | – | 2.08 ± 2.01 | 10.85 ± 4.62 | 4.27 ± 3.16 | – | – | – | – | – | – | – | – | – | Neutral cells in bronchoalveolar lavage fluid ([1]; 20 mg/kg): 6.38 ± 3.45 |
